# Where two headings read alike, the source gives them in different places.
# Target: T1, CFTR (Homo sapiens, UniProt P13569)
# T1 construct: endogenous in cells; host or cells: T84 human colonic cells (ECACC)
# Experiment: T84 assay (FLIPR membrane potential dye, forskolin/IBMX-stimulated CFTR channel activity)
# Type: cell-based
# Outline: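 Fluorescence from a membrane potential dye in T84 monolayers (HBSS with 10 mM Hepes) is followed each second for 150 s. Cells are exposed to test compound during the 45 min dye loading, then challenged with forskolin (10 μM) and IBMX (100 μM) to open CFTR. Inhibitors suppress the depolarization-driven fluorescence increase.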
# [1] = oxadiazole-containing compounds (a series), average of at least 2 runs unless annotated n = 1, read-out: IC50
# [2] = imidazole and triazole-containing compounds (Tables 13, 14, 14′), read-out: IC50 (μM) (T84 assay)
# T1 sequence (P13569 whole entry): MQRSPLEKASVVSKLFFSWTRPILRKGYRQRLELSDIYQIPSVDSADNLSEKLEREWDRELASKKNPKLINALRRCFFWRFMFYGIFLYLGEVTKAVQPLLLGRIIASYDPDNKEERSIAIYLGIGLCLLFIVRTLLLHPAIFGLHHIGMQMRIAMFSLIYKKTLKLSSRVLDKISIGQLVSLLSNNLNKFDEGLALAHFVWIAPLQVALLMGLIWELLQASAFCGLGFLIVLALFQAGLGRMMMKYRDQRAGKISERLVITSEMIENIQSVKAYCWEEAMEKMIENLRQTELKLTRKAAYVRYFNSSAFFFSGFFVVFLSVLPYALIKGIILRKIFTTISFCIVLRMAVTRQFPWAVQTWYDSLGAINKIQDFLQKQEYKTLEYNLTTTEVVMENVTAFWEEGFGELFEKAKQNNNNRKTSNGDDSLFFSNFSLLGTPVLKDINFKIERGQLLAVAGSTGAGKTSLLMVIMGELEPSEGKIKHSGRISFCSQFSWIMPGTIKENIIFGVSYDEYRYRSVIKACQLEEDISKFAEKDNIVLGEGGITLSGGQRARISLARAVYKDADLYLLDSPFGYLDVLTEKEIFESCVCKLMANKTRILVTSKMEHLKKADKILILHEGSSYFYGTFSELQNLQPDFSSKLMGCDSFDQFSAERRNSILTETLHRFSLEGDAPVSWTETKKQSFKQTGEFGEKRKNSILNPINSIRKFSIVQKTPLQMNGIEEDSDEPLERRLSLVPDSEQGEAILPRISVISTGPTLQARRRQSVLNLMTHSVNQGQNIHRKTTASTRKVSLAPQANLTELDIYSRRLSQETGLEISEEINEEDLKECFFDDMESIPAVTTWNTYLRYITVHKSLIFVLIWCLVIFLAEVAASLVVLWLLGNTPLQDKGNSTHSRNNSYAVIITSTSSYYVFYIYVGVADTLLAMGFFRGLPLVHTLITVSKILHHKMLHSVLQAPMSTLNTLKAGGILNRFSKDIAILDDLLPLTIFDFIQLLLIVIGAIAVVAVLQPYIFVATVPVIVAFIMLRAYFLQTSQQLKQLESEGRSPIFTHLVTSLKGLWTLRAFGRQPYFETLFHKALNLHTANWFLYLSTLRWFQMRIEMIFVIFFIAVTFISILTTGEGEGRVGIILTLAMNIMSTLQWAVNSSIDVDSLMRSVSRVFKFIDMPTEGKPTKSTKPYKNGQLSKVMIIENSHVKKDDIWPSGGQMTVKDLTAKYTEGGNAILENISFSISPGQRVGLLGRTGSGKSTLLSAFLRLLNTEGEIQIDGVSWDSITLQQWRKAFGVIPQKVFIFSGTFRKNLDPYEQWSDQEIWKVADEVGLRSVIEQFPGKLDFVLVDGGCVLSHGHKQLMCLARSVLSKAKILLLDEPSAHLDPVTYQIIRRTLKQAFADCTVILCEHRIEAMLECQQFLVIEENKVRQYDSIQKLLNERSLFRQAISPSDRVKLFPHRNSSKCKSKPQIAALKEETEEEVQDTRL
Compound,IC50 [1],IC50 [2]
"O=C(NCc1cccc(F)c1)c1noc(-c2cc(Cl)c(O)c(Cl)c2)n1 [116a, 5-(3,5-dichloro-4-hydroxyphenyl)-N-(3-fluorobenzyl)-1,2,4-oxadiazole-3-carboxamide]",18 µM,–
"CC(C)(C)c1ccc(CN(CCOCCOCCOCCOCCOCCOCc2ccccc2)C(=O)c2ncn(-c3cc(Cl)c(O)c(Cl)c3)n2)cc1 [116i, N-(4-tert-butylbenzyl)-1-(3,5-dichloro-4-hydroxyphenyl)-N-(1-phenyl-2,5,8,11,14,17-hexaoxanonadecan-19-yl)-1H-1,2,4-triazole-3-carboxamide]",–,2.8 µM
"CN(Cc1ccc(F)c(F)c1)C(=O)c1noc(-c2cc(Cl)c(O)c(Cl)c2)n1 [117a, 5-(3,5-dichloro-4-hydroxyphenyl)-N-(3,4-difluorobenzyl)-N-methyl-1,2,4-oxadiazole-3-carboxamide]",19.9 µM,–
"COCCOCCOCCOCCOCCOCCOCCOCCN(Cc1ccc(C(C)(C)C)cc1)C(=O)c1ncn(-c2cc(Cl)c(O)c(Cl)c2)n1 [117i, N-(4-tert-butylbenzyl)-1-(3,5-dichloro-4-hydroxyphenyl)-N-(2,5,8,11,14,17,20,23-octaoxapentacosan-25-yl)-1H-1,2,4-triazole-3-carboxamide]",–,21.4 µM
"O=C(NCc1cc(F)c(F)c(F)c1)c1noc(-c2cc(Cl)c(O)c(Cl)c2)n1 [118a, 5-(3,5-dichloro-4-hydroxyphenyl)-N-(3,4,5-trifluorobenzyl)-1,2,4-oxadiazole-3-carboxamide]",5.67 µM,–
"COCCOCCOCCOCCOCCN(Cc1ccc(C(C)(C)C)cc1)C(=O)c1ncn(-c2cc(Cl)c(O)c(Cl)c2)n1 [118i, N-(4-tert-butylbenzyl)-1-(3,5-dichloro-4-hydroxyphenyl)-N-(2,5,8,11,14-pentaoxahexadecan-16-yl)-1H-1,2,4-triazole-3-carboxamide]",–,17.3 µM
"O=C(c1noc(-c2cc(Cl)c(O)c(Cl)c2)n1)N(CCNCc1ccccc1)Cc1ccccc1 [119a, N-benzyl-N-(2-(benzylamino)ethyl)-5-(3,5-dichloro-4-hydroxyphenyl)-1,2,4-oxadiazole-3-carboxamide]",24.1 µM,–
"COCCOCCOCCOCCN(Cc1ccc(C(C)(C)C)cc1)C(=O)c1ncn(-c2cc(Cl)c(O)c(Cl)c2)n1 [120i, N-(4-tert-butylbenzyl)-1-(3,5-dichloro-4-hydroxyphenyl)-N-(2,5,8,11-tetraoxatridecan-13-yl)-1H-1,2,4-triazole-3-carboxamide]",–,5.9 µM
"O=C(c1nc(-c2cc(Cl)c(O)c(Cl)c2)no1)N(CCO)Cc1ccccc1 [121a, N-benzyl-3-(3,5-dichloro-4-hydroxyphenyl)-N-(2-hydroxyethyl)-1,2,4-oxadiazole-5-carboxamide]",19.2 µM,–
"COCCOCCOCCOCCOCCOCCOCCOCCON(Cc1ccc(Oc2ccccc2)cc1)C(=O)c1ncn(-c2cc(Cl)c(O)c(Cl)c2)n1 [121i, N-(2,5,8,11,14,17,20,23-octaoxapentacosan-25-yloxy)-1-(3,5-dichloro-4-hydroxyphenyl)-N-(4-phenoxybenzyl)-1H-1,2,4-triazole-3-carboxamide]",–,12.5 µM
"O=C(c1nc(-c2cc(Br)c(O)c(Br)c2)no1)N(CCO)Cc1ccccc1 [122a, N-benzyl-3-(3,5-dibromo-4-hydroxyphenyl)-N-(2-hydroxyethyl)-1,2,4-oxadiazole-5-carboxamide]",19.8 µM,–
"COCCOCCOCCOCCON(Cc1ccc(Oc2ccccc2)cc1)C(=O)c1ncn(-c2cc(Cl)c(O)c(Cl)c2)n1 [122i, N-(2,5,8,11-tetraoxatridecan-13-yloxy)-1-(3,5-dichloro-4-hydroxyphenyl)-N-(4-phenoxybenzyl)-1H-1,2,4-triazole-3-carboxamide]",–,5.11 µM
"O=C(NCc1ccc(Cl)c(F)c1)c1nc(-c2cc(Cl)c(O)c(Cl)c2)no1 [123a, N-(4-chloro-3-fluorobenzyl)-3-(3,5-dichloro-4-hydroxyphenyl)-1,2,4-oxadiazole-5-carboxamide]",16.4 µM,–
"COCCOCCOCCON(Cc1ccc(Oc2ccccc2)cc1)C(=O)c1ncn(-c2cc(Cl)c(O)c(Cl)c2)n1 [123i, 1-(3,5-dichloro-4-hydroxyphenyl)-N-(2-(2-(2-methoxyethoxy)ethoxy)ethoxy)-N-(4-phenoxybenzyl)-1H-1,2,4-triazole-3-carboxamide]",–,8.44 µM
"O=C(NCc1ccc(C(F)(F)F)cc1F)c1nc(-c2cc(Cl)c(O)c(Cl)c2)no1 [124a, 3-(3,5-dichloro-4-hydroxyphenyl)-N-(2-fluoro-4-(trifluoromethyl)benzyl)-1,2,4-oxadiazole-5-carboxamide]",14.6 µM,–
"O=C(NCc1cccc(-c2ccccc2)c1)c1nc(-c2cc(Cl)c(O)c(Cl)c2)no1 [125a, N-(biphenyl-3-ylmethyl)-3-(3,5-dichloro-4-hydroxyphenyl)-1,2,4-oxadiazole-5-carboxamide]",6.76 µM,–
"O=C(NCc1cc(C(F)(F)F)ccc1F)c1nc(-c2cc(Cl)c(O)c(Cl)c2)no1 [126a, 3-(3,5-dichloro-4-hydroxyphenyl)-N-(2-fluoro-5-(trifluoromethyl)benzyl)-1,2,4-oxadiazole-5-carboxamide]",23.4 µM,–
"CC(C)Oc1ccc(CNC(=O)c2nc(-c3cc(Cl)c(O)c(Cl)c3)no2)cc1 [127a, 3-(3,5-dichloro-4-hydroxyphenyl)-N-(4-isopropoxybenzyl)-1,2,4-oxadiazole-5-carboxamide]",9.95 µM,–

Compound,IC50 [1],IC50 [2]
"O=C(NCc1ccc(Cl)cc1)c1nc(-c2cc(Cl)c(O)c(Cl)c2)no1 [128a, N-(4-chlorobenzyl)-3-(3,5-dichloro-4-hydroxyphenyl)-1,2,4-oxadiazole-5-carboxamide]",12.8 µM,–
"CON(Cc1ccc(C(C)C)cc1)C(=O)c1ncn(-c2cc(Cl)c(O)c(Cl)c2)n1 [128i, 1-(3,5-dichloro-4-hydroxyphenyl)-N-(4-isopropylbenzyl)-N-methoxy-1H-1,2,4-triazole-3-carboxamide]",–,2.19 µM
"O=C(NCc1ccccc1C(F)(F)F)c1nc(-c2cc(Cl)c(O)c(Cl)c2)no1 [129a, 3-(3,5-dichloro-4-hydroxyphenyl)-N-(2-(trifluoromethyl)benzyl)-1,2,4-oxadiazole-5-carboxamide]",16.7 µM,–
"O=C(NCc1ccc(F)c(Cl)c1)c1nc(-c2cc(Cl)c(O)c(Cl)c2)no1 [130a, N-(3-chloro-4-fluorobenzyl)-3-(3,5-dichloro-4-hydroxyphenyl)-1,2,4-oxadiazole-5-carboxamide]",9.44 µM,–
"O=C(NCc1ccc(-c2ccccc2)cc1)c1nc(-c2cc(Cl)c(O)c(Cl)c2)no1 [131a, N-(biphenyl-4-ylmethyl)-3-(3,5-dichloro-4-hydroxyphenyl)-1,2,4-oxadiazole-5-carboxamide]",6.83 µM,–
"O=C(NCc1ccc(F)cc1F)c1nc(-c2cc(Cl)c(O)c(Cl)c2)no1 [132a, 3-(3,5-dichloro-4-hydroxyphenyl)-N-(2,4-difluorobenzyl)-1,2,4-oxadiazole-5-carboxamide]",16.1 µM,–
"CN(C)c1ccc(CNC(=O)c2nc(-c3cc(Cl)c(O)c(Cl)c3)no2)cc1 [133a, 3-(3,5-dichloro-4-hydroxyphenyl)-N-(4-(dimethylamino)benzyl)-1,2,4-oxadiazole-5-carboxamide]",17.9 µM,–
"O=C(NCc1cccc(C(F)(F)F)c1)c1nc(-c2cc(Cl)c(O)c(Cl)c2)no1 [134a, 3-(3,5-dichloro-4-hydroxyphenyl)-N-(3-(trifluoromethyl)benzyl)-1,2,4-oxadiazole-5-carboxamide]",8.65 µM,–
"O=C(NCc1cccc(OC(F)F)c1)c1nc(-c2cc(Cl)c(O)c(Cl)c2)no1 [135a, 3-(3,5-dichloro-4-hydroxyphenyl)-N-(3-(difluoromethoxy)benzyl)-1,2,4-oxadiazole-5-carboxamide]",20.4 µM,–
"CC(C)(C)c1ccc(CNC(=O)c2nc(-c3cc(Cl)c(O)c(Cl)c3)no2)cc1 [136a, N-(4-tert-butylbenzyl)-3-(3,5-dichloro-4-hydroxyphenyl)-1,2,4-oxadiazole-5-carboxamide]",2.95 µM,–
"O=C(NCc1cc(F)cc(F)c1)c1nc(-c2cc(Cl)c(O)c(Cl)c2)no1 [137a, 3-(3,5-dichloro-4-hydroxyphenyl)-N-(3,5-difluorobenzyl)-1,2,4-oxadiazole-5-carboxamide]",24.4 µM,–
"CN(Cc1ccc(C(F)(F)F)cc1)C(=O)c1nc(-c2cc(Cl)c(O)c(Cl)c2)no1 [138a, 3-(3,5-dichloro-4-hydroxyphenyl)-N-methyl-N-(4-(trifluoromethyl)benzyl)-1,2,4-oxadiazole-5-carboxamide]",3.84 µM,–
"CN(Cc1cccc(C(F)(F)F)c1)C(=O)c1nc(-c2cc(Cl)c(O)c(Cl)c2)no1 [139a, 3-(3,5-dichloro-4-hydroxyphenyl)-N-methyl-N-(3-(trifluoromethyl)benzyl)-1,2,4-oxadiazole-5-carboxamide]",5.1 µM,–
"CCN(Cc1ccccc1)C(=O)c1nc(-c2cc(Cl)c(O)c(Cl)c2)no1 [140a, N-benzyl-3-(3,5-dichloro-4-hydroxyphenyl)-N-ethyl-1,2,4-oxadiazole-5-carboxamide]",19.9 µM,–
"O=C(NCc1cccc(OCc2ccccc2)c1)c1nc(-c2cc(Cl)c(O)c(Cl)c2)no1 [141a, N-(3-(benzyloxy)benzyl)-3-(3,5-dichloro-4-hydroxyphenyl)-1,2,4-oxadiazole-5-carboxamide]",7.79 µM,–
"CN(Cc1ccc(Oc2ccccc2)cc1)C(=O)c1nc(-c2cc(Cl)c(O)c(Cl)c2)no1 [142a, 3-(3,5-dichloro-4-hydroxyphenyl)-N-methyl-N-(4-phenoxybenzyl)-1,2,4-oxadiazole-5-carboxamide]",10.2 µM,–
"CC(NC(=O)c1nc(-c2cc(Cl)c(O)c(Cl)c2)no1)c1ccc(Br)cc1 (stereo not drawn) [143a, N-(1-(4-bromophenyl)ethyl)-3-(3,5-dichloro-4-hydroxyphenyl)-1,2,4-oxadiazole-5-carboxamide]",5.15 µM,–
"CN(Cc1cccc(Oc2ccccc2)c1)C(=O)c1nc(-c2cc(Cl)c(O)c(Cl)c2)no1 [144a, 3-(3,5-dichloro-4-hydroxyphenyl)-N-methyl-N-(3-phenoxybenzyl)-1,2,4-oxadiazole-5-carboxamide]",6.33 µM,–
